Experimental data from publication PMC8123555, “Precision targeting of the plasminogen activator inhibitor‐1 mechanism increases efficacy of fibrinolytic therapy in empyema” (Physiological Reports, 2021).

System: chemically induced (TCN) pleural injury
Test: Fibrinolytic therapy of TCN-induced pleural injury in rabbits (GLIS, pleural thickening)
Assay type: in vivo, rabbit
Settings: outcome at 24 h
Description: All animal procedures were approved by the Institutional Animal Care and Use Committee at The University of Texas Health Science Center at Tyler (IACUC protocols 499,616,617). Studies used female, pathogen‐free New Zealand white rabbits (3.0–3.6 kg; average age 18 weeks) from Charles River Laboratories (Wilmington, MA). These studies required a total of 107 rabbits, 43 for the model of TCN‐induced pleural injury and 64 for the model of empyema. […] Accumulation of pleural fluid and fibrin deposition was monitored using ultrasonography; detailed in the ultrasonography subsection. […] Animals were monitored carefully for signs of distress, pain, and worsening clinical status. […]
Development of pleural injury was monitored via ultrasonography. […]
For each animal, gross lung injury scores (GLIS) were calculated as previously described (Florova et al., 2015; Karandashova et al., 2013; Komissarov et al., 2013). […] Pleural thickening was measured using morphometry, as previously described (Komissarov et al., 2016).

| Substance | Gross lung injury score (GLIS) (sctPA 72.5 µg/kg alone (1/2 of MED), n = 5) | Gross lung injury score (GLIS) (scuPA 62.5 µg/kg alone (1/8 of MED), n = 6) |
| --- | --- | --- |
| Alteplase [sctPA, reference compound] | > 10 | – |
| Prourokinase [scuPA] | – | > 10 |
